This is an account of results in patent US6750025B1 (priority 1998, dated 2004).

Structures are written as SMILES. Entries after “also recorded” stand apart in the source; their conditions may differ.

Test [1] has as its target streptavidin binding to the prion protein (Streptomyces avidinii, UniProt P22629).
Test [2] has as its target T1, streptavidin binding to Gly-Tyr-Gly-Gln-Pro-His-Gly-Gly sequence attached to resin A (Streptomyces avidinii, UniProt P22629).
T1 construct: purchased Sigma (streptavidin-phosphatase); Commonwealth Biotechnologies Inc. (peptide resin)

Test [3] addresses Streptavidin (Streptomyces avidinii, UniProt P22629). The note with it: cited from earlier work.

T1 sequence (P22629 25-183): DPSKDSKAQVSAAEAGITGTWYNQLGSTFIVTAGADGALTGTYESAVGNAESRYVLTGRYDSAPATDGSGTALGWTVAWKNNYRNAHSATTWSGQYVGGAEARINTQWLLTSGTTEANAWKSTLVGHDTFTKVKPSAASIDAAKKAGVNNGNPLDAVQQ
Chain of streptavidin binding to the prion protein (P22629 25-183 limits assumed): as the sequence (P22629 25-183) above
Chain of Streptavidin (P22629 25-183): as above

Take `O=C(O)CCCC[C@@H]1SC[C@@H]2NC(=O)N[C@@H]21` [D-biotin]: the “competition with the production of signal” value in test [1] (D-biotin added after binding of streptavidin to the proteins) is “did not compete with the production of signal”. For the same compound, the “inhibition of banding at 30-34 kDa” value in test [1] (streptavidin-phosphatase mixed with 10 μM D-biotin prior to addition to the Western blot) is recorded as “completely inhibited”. In addition, the “phosphatase activity in flow through of resin A after biotin pre-incubation” value in test [2] was “significant phosphatase activity; also recorded: found in the first few column volumes”. Also, in test [3], the “affinity of streptavidin to biotin” value is recorded as ~10^15.
